In general, IC50 refers to the concentration that inhibits the measured activity by half.

One test concerns the target T1, TRPC5 (Homo sapiens, UniProt Q9UL62).
T1 construct: expressed in transfected cells; host or cells: HEK 293
T1 sequence (Q9UL62 1-973): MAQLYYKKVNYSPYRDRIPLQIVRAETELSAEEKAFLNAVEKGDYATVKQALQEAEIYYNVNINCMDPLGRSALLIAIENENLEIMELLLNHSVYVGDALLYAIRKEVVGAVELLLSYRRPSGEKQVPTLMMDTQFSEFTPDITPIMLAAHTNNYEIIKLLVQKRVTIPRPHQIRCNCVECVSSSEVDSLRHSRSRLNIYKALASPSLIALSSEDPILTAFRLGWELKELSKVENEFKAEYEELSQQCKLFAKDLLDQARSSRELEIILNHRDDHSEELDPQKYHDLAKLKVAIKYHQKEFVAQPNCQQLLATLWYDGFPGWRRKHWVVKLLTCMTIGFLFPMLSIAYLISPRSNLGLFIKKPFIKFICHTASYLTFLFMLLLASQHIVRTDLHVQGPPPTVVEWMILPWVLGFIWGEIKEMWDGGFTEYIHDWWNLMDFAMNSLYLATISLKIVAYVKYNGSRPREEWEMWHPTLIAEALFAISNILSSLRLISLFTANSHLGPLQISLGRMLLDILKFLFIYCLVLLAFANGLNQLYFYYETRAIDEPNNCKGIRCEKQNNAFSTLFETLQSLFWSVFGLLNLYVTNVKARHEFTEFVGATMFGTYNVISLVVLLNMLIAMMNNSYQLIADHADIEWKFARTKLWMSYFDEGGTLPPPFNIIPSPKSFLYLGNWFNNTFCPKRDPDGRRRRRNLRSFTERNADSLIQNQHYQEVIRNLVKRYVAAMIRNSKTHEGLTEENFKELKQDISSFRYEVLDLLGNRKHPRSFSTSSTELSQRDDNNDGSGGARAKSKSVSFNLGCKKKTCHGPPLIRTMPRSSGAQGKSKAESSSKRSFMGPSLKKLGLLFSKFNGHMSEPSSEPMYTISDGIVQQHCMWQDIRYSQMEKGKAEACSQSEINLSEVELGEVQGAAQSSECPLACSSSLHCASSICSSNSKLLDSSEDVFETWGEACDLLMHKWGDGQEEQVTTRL
The experiment in a line: TRPC5 Fluorescence Assay - FLIPR format (HEK-TREx hTRPC5, Riluzole stimulation). As to conditions: Table 7, read-out: TRPC5-FLIPR IC50. The class given is cell-based. Here is the method:
• Cell line: ICLN-001633 • Base Cell: HEK • Channel: TRPC5 • Species: Human • Thaw ID: multiple • Passage: multiple
FLIPR Assay Buffer (Earls Balanced Salt Solution (EBSS) was prepared as follows:
Test Agent Preparation: Compounds were made up to, or supplied as, a 10 mM stock solution generally using DMSO as the vehicle. 10-point dose response curves were generated using the Echo-550 acoustic dispenser. Compound source plates were made by serially diluting compound stocks to create 10 mM, 1 mM, and 0.1 mM solutions in DMSO into Echo certified LDV plates. The Echo then serially spotted 100% DMSO stock solutions into source dose response plates to generate a 4-fold dilution scheme. 100% DMSO was added to the spotted dose response plates to bring the final volume to 5 μl. […] of the dose response stock plate was then spotted into pre-incubation and stimulation assay plates. 50 μl of pre-incubation buffer and 100 μl of stimulation buffer was then added to the plates resulting in a final assay test concentration range of 30 μM to 0.0001 μM with a final DMSO concentration of 0.3%.
Experimental Methods: Cells expressing TRPC5 (HEK-TREx hTRPC5) are plated onto 384 well, black PDL-coated microplates and maintained in TRPC5 growth media the day prior to use for experiments. TRPC5 expression is induced by the application of […] tetracycline at the time of plating. Media is removed from the plates and 10 μl of 4 μM of Fluo-4 AM (mixed with equal volume of Pluronic F-127) in EBSS is added to the cells. Cells are incubated at room temperature, protected from light, for 60-90 minutes. After the incubation period, the dye is removed and replaced with 10 μl of EBSS. Cell, pre-incubation and stimulation plates are loaded onto the FLIPR-II and the assay is initiated. The FLIPR measures a 10 second baseline and then adds 10 μl of 2× compounds (or controls). Changes in fluorescence are monitored for an additional 5 minutes. After the 5 minute pre-incubation, 20 μl of 2× Riluzole (with 1× compound or controls) is added to the cell plate. The final Riluzole stimulation concentration in the assay is 30 μM. After the Riluzole addition, changes in fluorescence are monitored for an additional 5 minutes.
Test Agent Effect: Test agent modulation of TRPC5 calcium response was determined as follows. After the Riluzole, fluorescence was monitored for a 5 minute period. The maximum relative fluorescene response (minus the control response of 1 μM of the control inhibitor) was captured and exported from the FLIPR. Test agent effect was calculated as % inhibition using the following formula: % inhibition=((RFU Test Agent−Plate Average RFU REF INHIB)/(Plate Average RFU Control−Plate Average RFU REF INHIB))×100
Turning to `CN(C)C(=O)c1nn(Cc2ccccc2C(F)F)c2c1CN(c1cn[nH]c(=O)c1Cl)CC2`, the IC50 was in the range of 0.01 to 1000 nM.

`O=c1[nH]ncc(N2CCc3c(c(=O)[nH]n3Cc3ccccc3C(F)F)C2)c1Cl` [drawing 936]: the IC50 is 0.01 to 1000 nM.

The same test, now with this note: Table 9, read-out: hTRPCS-FLIPR IC50.
Turning to `C[C@@H]1CN([C@@H](C)c2ccc(F)cc2C(F)(F)F)C(=O)CN1c1cn[nH]c(=O)c1Cl`, the IC50 lay in the range of 0.01 to 1000 nM. Take `CCc1ncccc1[C@H](CC)N1CCN(c2cn[nH]c(=O)c2C#N)CC1`: the concentration for half-maximal inhibition (IC50) was in the range of 1000 to 5000 nM. The same measure, in the same setting: in the case of `CCc1ncccc1[C@@H](CC)N1CCN(c2cn[nH]c(=O)c2C#N)CC1` it was 0.01 to 1000 nM; in that of `CCn1nnc(C)c1CN1CCN(c2cn[nH]c(=O)c2Cl)CC1`, 1000 to 5000 nM; in that of `CCc1ncccc1[C@H](C(C)C)N1CCN(c2cn[nH]c(=O)c2Cl)CC1`, 1000 to 5000 nM.

Turning to `O=c1[nH]ncc(N2CCN(S(=O)(=O)Cc3ccccc3C(F)(F)F)CC2)c1Cl`, the IC50 lay within 1000 to 5000 nM.

On to `O=C(CN1CCN(c2cn[nH]c(=O)c2Cl)CC1)c1ccccc1C(F)(F)F`, for which the IC50 was in the range of 1000 to 5000 nM.

Turning to `CCc1ncccc1CC1(O)CCN(c2cn[nH]c(=O)c2Cl)CC1`, the IC50 lay within 1000 to 5000 nM. On the same count and under the same terms, in the case of `Cc1ccccc1C(O)C1CCN(c2cn[nH]c(=O)c2Cl)CC1` (stereo not shown) it was 1000 to 5000 nM.

As to `CCc1ncccc1[C@@H](C(C)C)N1CCN(c2cn[nH]c(=O)c2Cl)CC1`, the IC50 is 0.01 to 1000 nM. On the same count and under the same terms, as for `NC(=O)C1(Cc2ccccc2C(F)(F)F)CCN(c2cn[nH]c(=O)c2Cl)CC1`, the figure is 1000 to 5000 nM.

Staying with this test, now noted: Table 10, read-out: TRPCS-FLIPR IC50.
With `C[C@H](c1cc(F)ccc1C(F)(F)F)n1nnc2c1CCN(c1cn[nH]c(=O)c1Cl)C2`, the IC50 lay in the range of 0.01 to 1000 nM.

Take `CCc1ncccc1[C@H](C)n1nnc2c1CCN(c1cn[nH]c(=O)c1Cl)C2` [drawing 1059]: the IC50 lay within 0.01 to 1000 nM. In the case of `CO[C@@H]1CN(c2cn[nH]c(=O)c2Cl)Cc2nnn(Cc3ccccc3C(F)F)c21`, the IC50 was 1000 to 5000 nM. For the compound `CN(c1ncc2c(n1)CN(c1cn[nH]c(=O)c1Cl)C2)c1ccccc1Cl`, the concentration for half-maximal inhibition (IC50) fell in the range of 0.01 to 1000 nM. The same measure, in the same setting: as for `O=c1[nH]ncc(N2CCc3c(nc(Oc4cccc(F)c4)n3Cc3ccccc3C(F)(F)F)C2)c1Cl`, the figure is 0.01 to 1000 nM; as for `O=c1[nH]ncc(N2CCc3c(c(-c4ncn[nH]4)nn3Cc3ccccc3C(F)(F)F)C2)c1Cl`, 1000 to 5000 nM; as for `O=c1[nH]ncc(C2=Cc3nnn(Cc4ccccc4C(F)(F)F)c3CC2)c1Cl`, 1000 to 5000 nM. Same read-out and setting: as for `N#Cc1nn(Cc2ccccc2C(F)(F)F)c2c1CN(c1cn[nH]c(=O)c1Cl)CC2`, the figure is 0.01 to 1000 nM; as for `C[C@H](c1ccc(F)cc1C(F)F)n1nnc2c1CCN(c1cn[nH]c(=O)c1Cl)C2`, 0.01 to 1000 nM. On the same count and under the same terms, in the case of `N#Cc1nn(Cc2ccccc2C(F)F)c2c1CN(c1cn[nH]c(=O)c1Cl)CC2` it was 0.01 to 1000 nM. Turning to `COc1nn(Cc2ccccc2C(F)F)c2c1CN(c1cn[nH]c(=O)c1Cl)CC2` [drawing 1056], the 50% inhibitory concentration (IC50) was 0.01 to 1000 nM. As for `Nc1nn(Cc2ccc(F)cc2C(F)(F)F)c2c1CN(c1cn[nH]c(=O)c1Cl)CC2`, the IC50 is 0.01 to 1000 nM. On the same count and under the same terms, as for `CNC(=O)c1nn([C@@H](C)c2ccccc2C(F)F)c2c1CN(c1cn[nH]c(=O)c1Cl)CC2`, the figure is 0.01 to 1000 nM; as for `C[C@H](c1ccc(F)cc1C(F)(F)F)c1n[nH]c2c1CCN(c1cn[nH]c(=O)c1Cl)C2`, 0.01 to 1000 nM. Regarding `CNC(=O)c1nn(Cc2ccccc2C(F)F)c2c1CN(c1cn[nH]c(=O)c1Cl)CC2`, the IC50 lay within 0.01 to 1000 nM.

For the compound `O=c1[nH]ncc(N2CCc3c(ncn3Cc3cccnc3[C@H](O)C(F)(F)F)C2)c1Cl`, the IC50 lay within 0.01 to 1000 nM.

For `C[C@@H](c1ccc(F)cc1C(F)(F)F)n1[nH]c(=O)c2c1CCN(c1cn[nH]c(=O)c1Cl)C2`, the IC50 lay in the range of 0.01 to 1000 nM. On the same count and under the same terms, in the case of `Nc1nn(Cc2ccccc2C(F)(F)F)c2c1CN(c1cn[nH]c(=O)c1Cl)CC2` it was 1000 to 5000 nM; in that of `CN(C)Cc1cc(F)ccc1Cn1nnc2c1CCN(c1cn[nH]c(=O)c1Cl)C2`, 1000 to 5000 nM. Same read-out and setting: in the case of `CN1CCN(Cc2nn(Cc3ccccc3C(F)F)c3c2CN(c2cn[nH]c(=O)c2Cl)CC3)C(=O)C1` [drawing 1111] it was 0.01 to 1000 nM. On the same count and under the same terms, as for `O=c1[nH]ncc(N2CCc3c(nnn3Cc3ccc(F)cc3CN3CCOCC3)C2)c1Cl`, the figure is 1000 to 5000 nM.

These data come from patent US20260184708A1, “PYRIDAZINONES AND METHODS OF USE THEREOF” (GFB (ABC), LLC, priority 2017, published 2026).
